Tests used:
[1] = molecular target: soluble human BACE1 catalytic domain (Homo sapiens (Human), UniProt P56817); experiment: BACE1 HTRF FRET Assay; type: biochemical; details: Ki calculated from IC50 using the Cheng-Prusoff equation; QSY7-APPswe-Eu substrate, pH 5.0
From the text: Reagents: Na^+-Acetate pH 5.0; 1% Brij-35; Glycerol; Dimethyl Sulfoxide (DMSO); Recombinant human soluble BACE1 catalytic domain (>95% pure); APP Swedish mutant peptide substrate (QSY7-APP^swe-Eu): QSY7-[…]-Europium-amide (SEQ ID 1).
A homogeneous time-resolved FRET assay can be used to determine IC50 values for inhibitors of the soluble human BACE1 catalytic domain. This assay monitors the increase of 620 nm fluorescence that resulted from BACE1 cleavage of an APPswedish APP^swe mutant peptide FRET substrate (QSY7-[…]-Europium-amide (SEQ ID 1)). This substrate contains an N-terminal QSY7 moiety that serves as a quencher of the C-terminal Europium fluorophore (620 nm Em). […] Inhibition of BACE1 cleavage of the QSY7-APP^swe-Eu substrate by inhibitors is manifested as a suppression of 620 nm fluorescence.
Varying concentrations of inhibitors at 3× the final desired concentration in a volume of 10 ul are preincubated with purified human BACE1 catalytic domain (3 nM in 10 μl) for 30 minutes at 30° C. in reaction buffer containing 20 mM Na-Acetate pH 5.0, 10% glycerol, 0.1% Brij-35 and 7.5% DSMO. Reactions are initiated by addition of 10 μl of 600 nM QSY7-APP^swe-Eu substrate (200 nM final) to give a final reaction volume of 30 μl in a 384 well Nunc HTRF plate. The reactions are incubated at 30° C. for 1.5 hours. The 620 nm fluorescence is then read on a Rubystar HTRF plate reader (BMG Labtechnologies) using a 50 millisecond delay followed by a 400 millisecond acquisition time window. Inhibitor IC50 values are derived from non-linear regression analysis of concentration response curves.

[2] = molecular target: purified human autoBACE-2 (Homo sapiens, UniProt Q9Y5Z0); experiment: BACE-2 Assay (BACE-HTRF assay); type: biochemical; details: Ki calculated from IC50 using the Cheng-Prusoff equation; QSY7-EISEVNLDAEFC-Eu-amide substrate, pH 5.0; read-out: BACE2 Ki
Sequence of purified human autoBACE-2 (Q9Y5Z0 63-518 limits assumed): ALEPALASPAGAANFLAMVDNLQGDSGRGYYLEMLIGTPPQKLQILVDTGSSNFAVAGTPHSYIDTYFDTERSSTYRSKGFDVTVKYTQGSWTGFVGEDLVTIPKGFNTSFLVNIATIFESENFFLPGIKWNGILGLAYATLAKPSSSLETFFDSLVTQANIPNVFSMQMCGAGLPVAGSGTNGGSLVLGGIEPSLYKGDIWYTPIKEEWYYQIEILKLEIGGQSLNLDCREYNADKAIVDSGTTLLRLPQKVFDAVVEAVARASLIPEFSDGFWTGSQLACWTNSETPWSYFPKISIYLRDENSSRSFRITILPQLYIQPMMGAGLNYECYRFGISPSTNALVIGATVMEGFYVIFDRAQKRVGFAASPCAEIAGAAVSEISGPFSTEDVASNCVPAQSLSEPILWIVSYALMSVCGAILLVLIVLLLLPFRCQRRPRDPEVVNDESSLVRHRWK
Procedure: DMSO is present at 5% final concentration in the assay. Following laser excitation of sample wells at 320 nm, the fluorescence signal at 620 nm is collected for 400 ms following a 50 μs delay on a RUBYstar HTRF plate reader (BMG Labtechnologies). Raw RFU data is normalized to maximum (1.0 nM BACE/DMSO) and minimum (no enzyme/DMSO) RFU values. […] The Ki values are calculated from the IC50 using the Cheng-Prusoff equation.

Sequence of soluble human BACE1 catalytic domain (P56817 75-416): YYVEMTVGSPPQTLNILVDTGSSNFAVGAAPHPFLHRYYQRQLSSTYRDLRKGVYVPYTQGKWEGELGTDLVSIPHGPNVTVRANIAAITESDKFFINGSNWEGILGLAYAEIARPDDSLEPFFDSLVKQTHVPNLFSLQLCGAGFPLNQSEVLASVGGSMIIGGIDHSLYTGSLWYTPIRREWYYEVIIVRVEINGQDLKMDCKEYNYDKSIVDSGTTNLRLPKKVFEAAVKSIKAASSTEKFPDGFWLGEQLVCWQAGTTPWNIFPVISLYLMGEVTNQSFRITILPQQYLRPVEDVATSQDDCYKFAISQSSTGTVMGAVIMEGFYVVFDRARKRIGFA

| Compound | Ki [1] | Ki [2] |
| --- | --- | --- |
| CN1C[C@@](C)(c2cc(NC(=O)c3cnc(OCC(F)(F)F)cn3)ccc2F)NC(=N)C(C)(C)S1(=O)=O [Example 12, N-{4-fluoro-3-[(4R)-6-imino-2,4,7,7-tetramethyl-1,1-dioxido-1,2,5-thiadiazepan-4-yl]phenyl}-5-(2,2,2-trifluoroethoxy)pyrazine-2-carboxamide] | 17 nM | 171 nM |
| CN1C[C@@](C)(c2cc(NC(=O)c3cnccn3)ccc2F)NC(=N)C(C)(C)S1(=O)=O [Example 13, N-{4-fluoro-3-[(4R)-6-imino-2,4,7,7-tetramethyl-1,1-dioxido-1,2,5-thiadiazepan-4-yl]phenyl}pyrazine-2-carboxamide] | 263 nM | 110 nM |
| CN1C[C@@](C)(c2cc(NC(=O)c3cnc(OCCF)cn3)ccc2F)NC(=N)C(C)(C)S1(=O)=O [Example 14, 5-(2-fluoroethoxy)-N-{4-fluoro-3-[(4R)-6-imino-2,4,7,7-tetramethyl-1,1-dioxido-1,2,5-thiadiazepan-4-y]phenyl}pyrazine-2-carboxamide] | 52 nM | 217 nM |
| CN1C[C@@](C)(c2cc(NC(=O)c3cnsn3)ccc2F)NC(=N)C(C)(C)S1(=O)=O [Example 16, N-{4-fluoro-3-[(4R)-6-imino-2,4,7,7-tetramethyl-1,1-dioxido-1,2,5-thiadiazepan-4-yl]phenyl}-1,2,5-thiadiazole-3-carboxamide] | 64 nM | 25 nM |
| CN1C[C@@](C)(c2cc(NC(=O)c3cn4ccc(C#N)cc4n3)ccc2F)NC(=N)C(C)(C)S1(=O)=O [Example 17, 7-cyano-N-{4-fluoro-3-[(4R)-6-imino-2,4,7,7-tetramethyl-1,1-dioxido-1,2,5-thiadiazepan-4-yl]phenyl}imidazo[1,2-a]pyridine-2-carboxamide] | 5630 nM | 7490 nM |
| COCCC(=O)Nc1ccc(F)c([C@]2(C)CN(C)S(=O)(=O)C(C)(C)C(=N)N2)c1 [Example 24, N-{4-fluoro-3-[(4R)-6-imino-2,4,7,7-tetramethyl-1,1-dioxido-1,2,5-thiadiazepan-4-yl]phenyl}-3-methoxypropanamide] | > 9760 nM | 4090 nM |
| COCC(=O)Nc1ccc(F)c([C@]2(C)CN(C)S(=O)(=O)C(C)(C)C(=N)N2)c1 [Example 25, N-{4-fluoro-3-[(4R)-6-imino-2,4,7,7-tetramethyl-1,1-dioxido-1,2,5-thiadiazepan-4-yl]phenyl}-2-methoxyacetamide] | 756 nM | 122 nM |
| CN1C[C@@](C)(c2cc(NC(=O)c3cn(C)nc3C(F)(F)F)ccc2F)NC(=N)C(C)(C)S1(=O)=O [Example 26, N-{4-fluoro-3-[(4R)-6-imino-2,4,7,7-tetramethyl-1,1-dioxido-1,2,5-thiadiazepan-4-yl]phenyl}-1-methyl-3-(trifluoromethyl)-1H-pyrazole-4-carboxamide] | 8790 nM | 6510 nM |
| CN1C[C@@](C)(c2cc(NC(=O)c3cn4ccsc4n3)ccc2F)NC(=N)C(C)(C)S1(=O)=O [Example 27, N-{4-fluoro-3-[(4R)-6-imino-2,4,7,7-tetramethyl-1,1-dioxido-1,2,5-thiadiazepan-4-yl]phenyl}imidazo[2,1-b][1,3]thiazole-6-carboxamide] | 285 nM | 46 nM |
| CN1C[C@@](C)(c2cc(NC(=O)C(F)F)ccc2F)NC(=N)C(C)(C)S1(=O)=O [Example 28, 2,2-difluoro-N-{4-fluoro-3-[(4R)-6-imino-2,4,7,7-tetramethyl-1,1-dioxido-1,2,5-thiadiazepan-4-yl]phenyl}acetamide] | 1200 nM | 354 nM |
| CO[C@H](C)C(=O)Nc1ccc(F)c([C@]2(C)CN(C)S(=O)(=O)C(C)(C)C(=N)N2)c1 [Example 29, (2R)-N-{4-fluoro-3-[(4R)-6-imino-2,4,7,7-tetramethyl-1,1-dioxido-1,2,5-thiadiazepan-4-yl]phenyl}-2-methoxypropanamide] | 4680 nM | 798 nM |
| CN1C[C@@](C)(c2cc(NC(=O)CC3CC3)ccc2F)NC(=N)C(C)(C)S1(=O)=O [Example 30, 2-cyclopropyl-N-{4-fluoro-3-[(4R)-6-imino-2,4,7,7-tetramethyl-1,1-dioxido-1,2,5-thiadiazepan-4-yl]phenyl}acetamide] | > 9760 nM | 2190 nM |
| CN1C[C@@](C)(c2cc(NC(=O)c3ncc(C(F)(F)F)cn3)ccc2F)NC(=N)C(C)(C)S1(=O)=O [Example 31, N-{4-fluoro-3-[(4R)-6-imino-2,4,7,7-tetramethyl-1,1-dioxido-1,2,5-thiadiazepan-4-yl]phenyl}-5-(trifluoromethyl)pyrimidine-2-carboxamide] | 189 nM | 202 nM |

Continued, values first:

| Ki [1] | Ki [2] | Compound |
| --- | --- | --- |
| 153 nM | 27 nM | Cc1nc(C(=O)Nc2ccc(F)c([C@]3(C)CN(C)S(=O)(=O)C(C)(C)C(=N)N3)c2)no1 [Example 15, N-{4-fluoro-3-[(4R)-6-imino-2,4,7,7-tetramethyl-1,1-dioxido-1,2,5-thiadiazepan-4-yl]phenyl}-5-methyl-1,2,4-oxadiazole-3-carboxamide] |
| 271 nM | 42 nM | CN1C[C@@](C)(c2cc(NC(=O)c3ccn(C)n3)ccc2F)NC(=N)C(C)(C)S1(=O)=O [Example 18, N-{4-fluoro-3-[(4R)-6-imino-2,4,7,7-tetramethyl-1,1-dioxido-1,2,5-thiadiazepan-4-yl]phenyl}-1-methyl-1H-pyrazole-3-carboxamide] |
| 1360 nM | 347 nM | Cc1cc(C(=O)Nc2ccc(F)c([C@]3(C)CN(C)S(=O)(=O)C(C)(C)C(=N)N3)c2)no1 [Example 19, N-{4-fluoro-3-[(4R)-6-imino-2,4,7,7-tetramethyl-1,1-dioxido-1,2,5-thiadiazepan-4-yl]phenyl}-5-methylisoxazole-3-carboxamide] |
| 1140 nM | > 9540 nM | Cc1nc2ccc(C(=O)Nc3ccc(F)c([C@]4(C)CN(C)S(=O)(=O)C(C)(C)C(=N)N4)c3)cc2o1 [Example 20, N-{4-fluoro-3-[(4R)-6-imino-2,4,7,7-tetramethyl-1,1-dioxido-1,2,5-thiadiazepan-4-yl]phenyl}-2-methyl-1,3-benzoxazole-6-carboxamide] |
| 228 nM | 43 nM | CN1C[C@@](C)(c2cc(NC(=O)c3ccccn3)ccc2F)NC(=N)C(C)(C)S1(=O)=O [Example 21, N-{4-fluoro-3-[(4R)-6-imino-2,4,7,7-tetramethyl-1,1-dioxido-1,2,5-thiadiazepan-4-yl]phenyl}pyridine-2-carboxamide] |
| 1690 nM | 1020 nM | Cc1cc(C(=O)Nc2ccc(F)c([C@]3(C)CN(C)S(=O)(=O)C(C)(C)C(=N)N3)c2)on1 [Example 22, N-{4-fluoro-3-[(4R)-6-imino-2,4,7,7-tetramethyl-1,1-dioxido-1,2,5-thiadiazepan-4-yl]phenyl}-3-methylisoxazole-5-carboxamide] |
| 21 nM | 6.4 nM | CN1C[C@@](C)(c2cc(NC(=O)c3ncc(Cl)cc3F)ccc2F)NC(=N)C(C)(C)S1(=O)=O [Example 23, 5-chloro-3-fluoro-N-{4-fluoro-3-[(4R)-6-imino-2,4,7,7-tetramethyl-1,1-dioxido-1,2,5-thiadiazepan-4-yl]phenyl}pyridine-2-carboxamide] |

From patent US9745324B2, “Iminothiadiazepane dioxide compounds as BACE inhibitors, compositions, and their use” (Merck Sharp & Dohme Corp., priority 2013, dated 2017)
